Reference: patent US20080090805A1, “CB-1 MODULATING COMPOUNDS AND THEIR USE” (ACADIA PHARMACEUTICALS INC., priority 2005, published 2008)
Where two headings read alike, the source gives them in different places.

Legend:
native CB1 receptors = native CB1 receptors (Rattus norvegicus, UniProt P20272); assay: CB1 receptor rat binding assay ([3H]SR141716A, rat brain membranes)
human CB1 receptor = human CB1 receptor (Homo sapiens, UniProt P21554); assay: CB1 receptor human binding assay ([3H]SR141716A, transfected HEK-293 T membranes); details: human CB1, HEK-293 T membranes; for Ki: read-out: Binding Human pKi (converted)
Chain of human CB1 receptor (P21554 whole entry): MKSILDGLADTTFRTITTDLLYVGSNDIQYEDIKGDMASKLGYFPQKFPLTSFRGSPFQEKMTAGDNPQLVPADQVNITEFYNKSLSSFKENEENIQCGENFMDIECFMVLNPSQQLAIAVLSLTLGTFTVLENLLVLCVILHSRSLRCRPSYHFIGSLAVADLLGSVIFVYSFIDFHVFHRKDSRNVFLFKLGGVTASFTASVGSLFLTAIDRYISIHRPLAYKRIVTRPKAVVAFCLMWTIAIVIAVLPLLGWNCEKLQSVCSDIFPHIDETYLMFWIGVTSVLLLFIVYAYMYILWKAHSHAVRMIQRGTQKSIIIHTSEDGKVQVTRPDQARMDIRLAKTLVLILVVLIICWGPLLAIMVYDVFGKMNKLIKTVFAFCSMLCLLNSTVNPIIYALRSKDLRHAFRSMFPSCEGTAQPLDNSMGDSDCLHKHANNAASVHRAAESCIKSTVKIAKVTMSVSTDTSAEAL

[1] = Clearance study, liver microsomes (human); details: pH 7.4
[2] = Clearance study, liver microsomes (rats); details: rat, pH 7.4
[3] = Clearance study, liver microsomes (mice); details: mouse, pH 7.4
[4] = rat brain membranes, [3H]SR141716A
[5] = rat brain membranes, [3H]SR141716A, read-out: Binding rat pKi (converted)

Chain of native CB1 receptors (P20272 whole entry): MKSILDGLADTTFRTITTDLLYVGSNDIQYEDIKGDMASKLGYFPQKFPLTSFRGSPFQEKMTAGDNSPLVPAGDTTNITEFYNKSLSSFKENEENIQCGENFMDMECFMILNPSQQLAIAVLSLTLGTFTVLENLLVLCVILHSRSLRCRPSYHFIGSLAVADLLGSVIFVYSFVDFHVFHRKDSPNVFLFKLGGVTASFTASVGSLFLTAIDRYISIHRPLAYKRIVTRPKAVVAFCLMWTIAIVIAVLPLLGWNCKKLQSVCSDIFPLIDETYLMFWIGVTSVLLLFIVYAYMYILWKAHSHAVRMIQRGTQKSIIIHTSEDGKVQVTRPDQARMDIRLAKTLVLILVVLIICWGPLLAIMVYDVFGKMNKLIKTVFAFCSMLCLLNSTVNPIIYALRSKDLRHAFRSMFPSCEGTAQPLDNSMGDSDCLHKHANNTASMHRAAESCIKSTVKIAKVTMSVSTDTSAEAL

| Compound | Binding rat Inh % (native CB1 receptors; [4]) | Ki (native CB1 receptors; [5]) | Binding Human Inh % (human CB1 receptor) | Ki (human CB1 receptor) | microsomal CLint at 1 μM [1] | microsomal CLint at 1 μM [2] | microsomal CLint at 1 μM [3] | Ki (native CB1 receptors) |
| --- | --- | --- | --- | --- | --- | --- | --- | --- |
| O=C(NC1CCCCC1)c1ccc2c(c1)N=C(c1ccc(F)cc1)c1ccccc1S2 [drawing 1202] | 84% | 3.16 nM | 87% | 1.26 nM | – | – | – | – |
| O=C(NC1CCCCC1)c1ccc2c(c1)N=C(c1cccc(Cl)c1)c1ccccc1S2 [drawing 1194] | 80% | 1.26 nM | 107% | 0.631 nM | – | – | – | – |
| CC(C)CNC(=O)c1ccc2c(c1)N=C(c1ccc(Cl)c(Cl)c1)c1ccccc1S2 [drawing 1192] | 96% | 1.58 nM | 100% | 0.398 nM | – | – | – | – |
| CC(C)CNC(=O)c1ccc2c(c1)N=C(c1ccc(Cl)cc1F)c1ccccc1S2 [drawing 1199] | 94% | 5.01 nM | 77% | 0.631 nM | – | – | – | – |
| COc1cccc(C2=Nc3cc(C(=O)NC4CCC(F)(F)CC4)ccc3Sc3ccccc32)n1 [drawing 1193] | 82% | 0.794 nM | 88% | 0.501 nM | – | – | – | – |
| O=C(NN1CCCCC1)c1ccc2c(c1)N=C(c1ccc(F)cc1)c1ccccc1S2 [drawing 1207] | 103% | 10 nM | 87% | 1.26 nM | – | – | – | – |
| CCCNC(=O)c1ccc2c(c1)N=C(c1ccc(Cl)cc1)c1ccccc1S2 [drawing 1210] | 95% | 6.31 nM | 74% | 2 nM | – | – | – | – |
| O=C(NCc1cccs1)c1ccc2c(c1)N=C(c1ccc(F)cc1)c1ccccc1S2 [drawing 1178] | 97% | 1.58 nM | 76% | 0.2 nM | – | – | – | – |
| O=C(NCc1cccnc1)c1ccc2c(c1)N=C(c1ccc(Cl)c(Cl)c1)c1ccccc1S2 [drawing 1664] | – | – | – | – | 19 µL/min/mg | 33 µL/min/mg | 38 µL/min/mg | – |
| CC(C)CNC(=O)c1ccc2c(c1)N=C(c1ccc(F)cc1)c1ccccc1S2 [drawing 1761] | – | – | – | – | 43 µL/min/mg | 125 µL/min/mg | 354 µL/min/mg | – |
| O=C(NN1CCCCCC1)c1ccc2c(c1)N=C(c1cccc(F)c1)c1ccccc1S2 [drawing 1215] | 97% | 6.31 nM | 103% | 2 nM | – | – | – | – |
| CCCCNC(=O)c1ccc2c(c1)N=C(c1ccc(Cl)cc1)c1ccc(F)cc1S2 [drawing 1184] | 98% | 2.51 nM | 94% | 0.251 nM | – | – | – | – |
| Cc1ccsc1C1=Nc2cc(C(=O)NN3CCCCCC3)ccc2Sc2ccccc21 [drawing 1706] | – | – | – | – | 118 µL/min/mg | 358 µL/min/mg | 448 µL/min/mg | – |
| CC(C)CNC(=O)c1ccc2c(c1)N=C(c1ccc(Cl)cc1F)c1ccccc1S2 [drawing 1677] | – | – | – | – | 20 µL/min/mg | 51 µL/min/mg | 98 µL/min/mg | – |
| O=C(NCc1cccc(Cl)c1)c1ccc2c(c1)N=C(c1ccc(Cl)cc1)c1ccccc1S2 [drawing 1725] | – | – | – | – | 9 µL/min/mg | 58 µL/min/mg | 238 µL/min/mg | – |
| COCCNC(=O)c1ccc2c(c1)N=C(c1ccc(Cl)s1)c1ccccc1S2 [drawing 1218] | 80% | 50.1 nM | 94% | 20 nM | – | – | – | – |
| O=C(NC1CCCCC1)c1ccc2c(c1)N=C(c1cccc(F)c1)c1ccccc1S2 [drawing 1757] | – | – | – | – | 29 µL/min/mg | 90 µL/min/mg | 176 µL/min/mg | – |
| O=C(NN1CCCCC1)c1ccc2c(c1)N=C(c1ccc(Cl)cc1)c1ccccc1S2 [drawing 1676] | – | – | – | – | 32 µL/min/mg | 60 µL/min/mg | 126 µL/min/mg | – |
| CC(C)CCNC(=O)c1ccc2c(c1)N=C(c1cccc(Cl)c1)c1ccccc1S2 [drawing 1185] | 89% | 1 nM | 86% | 0.251 nM | – | – | – | – |
| O=C(NCc1cccs1)c1ccc2c(c1)N=C(c1ccc(Cl)cc1)c1ccccc1S2 [drawing 1735] | – | – | – | – | 17 µL/min/mg | 76 µL/min/mg | 90 µL/min/mg | – |
| O=C(NCCc1cccnc1)c1ccc2c(c1)N=C(c1ccc(Cl)s1)c1ccccc1S2 [drawing 1690] | – | – | – | – | 238 µL/min/mg | 96 µL/min/mg | 122 µL/min/mg | – |
| O=C(NCc1cccs1)c1ccc2c(c1)N=C(c1cccc(F)c1)c1ccccc1S2 [drawing 1658] | – | – | – | – | 56 µL/min/mg | 166 µL/min/mg | 238 µL/min/mg | – |
| O=C(NCc1cccc(Cl)c1)c1ccc2c(c1)N=C(c1ccc(F)cc1)c1ccccc1S2(=O)=O [drawing 1670] | – | – | – | – | 32 µL/min/mg | 31 µL/min/mg | 32 µL/min/mg | – |
| COc1cccc(C2=Nc3cc(C(=O)NCCCC(F)(F)F)ccc3Sc3ccccc32)n1 [drawing 1186] | 87% | 10 nM | 84% | 0.316 nM | – | – | – | – |

| Compound | Binding rat Inh % (native CB1 receptors; [4]) | Ki (native CB1 receptors; [5]) | Binding Human Inh % (human CB1 receptor) | Ki (human CB1 receptor) | microsomal CLint at 1 μM [1] | microsomal CLint at 1 μM [2] | microsomal CLint at 1 μM [3] | Ki (native CB1 receptors) |
| --- | --- | --- | --- | --- | --- | --- | --- | --- |
| CCCCNC(=O)c1ccc2c(c1)N=C(c1ccc(Cl)s1)c1ccccc1S2 [drawing 1191] | 101% | 2.51 nM | 90% | 0.316 nM | – | – | – | – |
| Cc1ccsc1C1=Nc2cc(C(=O)NCc3cccs3)ccc2Sc2ccccc21 [drawing 1781] | – | – | – | – | 227 µL/min/mg | 542 µL/min/mg | 852 µL/min/mg | – |
| O=C(NCc1ccc(F)cc1)c1ccc2c(c1)N=C(C1CCCCC1)c1ccccc1S2 [drawing 1775] | – | – | – | – | 58 µL/min/mg | 493 µL/min/mg | 275 µL/min/mg | – |
| O=C(NCc1ccccc1)c1ccc2c(c1)N=C(c1ccc(Cl)cc1)c1ccccc1S2 [drawing 1801] | – | – | – | – | 23 µL/min/mg | 63 µL/min/mg | 166 µL/min/mg | – |
| O=C(NN1CCCCC1)c1ccc2c(c1)N=C(C1CCCCC1)c1ccccc1S2 [drawing 1216] | 94% | – | 65% | 2 nM | – | – | – | 5.01 nM |
| O=C(NCc1cccnc1)c1ccc2c(c1)N=C(c1cccc(F)c1)c1ccccc1S2 [drawing 1742] | – | – | – | – | 73 µL/min/mg | 187 µL/min/mg | 127 µL/min/mg | – |
| CC(C)CNC(=O)c1ccc2c(c1)N=C(c1ccccn1)c1ccccc1S2 [drawing 1217] | 79% | 158 nM | 89% | 6.31 nM | – | – | – | – |
| O=C(NCc1cccs1)c1ccc2c(c1)N=C(c1ccccc1F)c1ccccc1S2 [drawing 1744] | – | – | – | – | 89 µL/min/mg | 225 µL/min/mg | 386 µL/min/mg | – |
| O=C(NN1CCCCCC1)c1ccc2c(c1)N=C(c1cccc(Cl)c1)c1ccccc1S2 [drawing 1209] | 87% | 2 nM | 94% | 1.58 nM | – | – | – | – |
| CCCCNC(=O)c1ccc2c(c1)N=C(c1ccc(Cl)cn1)c1ccccc1S2 [drawing 1704] | – | – | – | – | 70 µL/min/mg | 320 µL/min/mg | 477 µL/min/mg | – |
| CCCCNC(=O)c1ccc2c(c1)N=C(c1cccc(F)c1)c1ccccc1S2 [drawing 1700] | – | – | – | – | 65 µL/min/mg | 152 µL/min/mg | 647 µL/min/mg | – |
| CCCCNC(=O)c1ccc2c(c1)N=C(c1ccc(Br)cn1)c1ccccc1S2 [drawing 1654] | – | – | – | – | 63 µL/min/mg | 299 µL/min/mg | 348 µL/min/mg | – |
| Cc1ccsc1C1=Nc2cc(C(=O)NCc3ccco3)ccc2Sc2ccccc21 [drawing 1762] | – | – | – | – | 155 µL/min/mg | 395 µL/min/mg | 755 µL/min/mg | – |
| CC(C)CNC(=O)c1ccc2c(c1)N=C(c1ccc(Cl)s1)c1ccc(Cl)cc1S2 [drawing 1200] | 100% | 5.01 nM | 92% | 0.631 nM | – | – | – | – |
| O=C(NCCCC(F)(F)F)c1ccc2c(c1)N=C(c1ccc(Cl)cc1F)c1ccccc1S2 [drawing 1175] | 87% | 0.501 nM | 92% | 0.0794 nM | – | – | – | – |
| CCCNC(=O)c1ccc2c(c1)N=C(c1ccc(Cl)cc1)c1ccccc1S2 [drawing 1691] | – | – | – | – | 15 µL/min/mg | 63 µL/min/mg | 694 µL/min/mg | – |
| COc1ccc(C2=Nc3cc(C(=O)NCC(C)C)ccc3Sc3ccccc32)cc1 [drawing 1708] | – | – | – | – | 78 µL/min/mg | 113 µL/min/mg | 218 µL/min/mg | – |
| O=C(NCc1ccco1)c1ccc2c(c1)N=C(c1cccc(Cl)c1)c1ccccc1S2 [drawing 1684] | – | – | – | – | 35 µL/min/mg | 93 µL/min/mg | 133 µL/min/mg | – |
| O=C(NCCc1cccnc1)c1ccc2c(c1)N=C(c1cccc(Cl)c1)c1ccccc1S2 [drawing 1770] | – | – | – | – | 130 µL/min/mg | 154 µL/min/mg | 82 µL/min/mg | – |
| CCCCNC(=O)c1ccc2c(c1)N=C(c1ccc(F)cn1)c1ccccc1S2 [drawing 1752] | – | – | – | – | 56 µL/min/mg | 264 µL/min/mg | 668 µL/min/mg | – |
| CC(C)CNC(=O)c1ccc2c(c1)N=C(c1ccc(Cl)cc1)c1ccc(F)cc1S2 [drawing 1177] | 89% | 3.98 nM | 93% | 0.158 nM | – | – | – | – |
| O=C(NCc1ccc(F)cc1)c1ccc2c(c1)N=C(c1ccc(Cl)cc1)c1ccccc1S2 [drawing 1741] | – | – | – | – | 16 µL/min/mg | 56 µL/min/mg | 130 µL/min/mg | – |
| O=C(NCc1ccccc1Cl)c1ccc2c(c1)N=C(c1cccc(Cl)c1)c1ccccc1S2 [drawing 1674] | – | – | – | – | 28 µL/min/mg | 48 µL/min/mg | 124 µL/min/mg | – |
